According to US20110313046A1, “COMBINATION THERAPY WITH LISDEXAMPHETAMINE AND EXTENDED RELEASE GUANFACINE” (priority 2010, published 2011):
Where two headings read alike, the source gives them in different places.

Key:
[1] = Guanfacine plasma pharmacokinetics, crossover drug-drug interaction study; design: species or system healthy adults; details: human, in vivo
Protocol: (§1) An open-label, randomized, single-center, 3-period, crossover, drug-drug interaction study in 42 healthy adults (18-45 years old) was performed. Subjects received three single, oral dose treatments: 4 mg extended release guanfacine, 50 mg lisdexamphetmaine, and 4 mg extended release guanfacine in combination with 50 mg lisdexamphetmaine. Subjects underwent the three treatment periods with a 7-day washout between each treatment.

CYP3A4 = CYP3A4 (Homo sapiens, UniProt P08684); details: cited from earlier work
Chain of CYP3A4 (P08684 whole entry, species assumed): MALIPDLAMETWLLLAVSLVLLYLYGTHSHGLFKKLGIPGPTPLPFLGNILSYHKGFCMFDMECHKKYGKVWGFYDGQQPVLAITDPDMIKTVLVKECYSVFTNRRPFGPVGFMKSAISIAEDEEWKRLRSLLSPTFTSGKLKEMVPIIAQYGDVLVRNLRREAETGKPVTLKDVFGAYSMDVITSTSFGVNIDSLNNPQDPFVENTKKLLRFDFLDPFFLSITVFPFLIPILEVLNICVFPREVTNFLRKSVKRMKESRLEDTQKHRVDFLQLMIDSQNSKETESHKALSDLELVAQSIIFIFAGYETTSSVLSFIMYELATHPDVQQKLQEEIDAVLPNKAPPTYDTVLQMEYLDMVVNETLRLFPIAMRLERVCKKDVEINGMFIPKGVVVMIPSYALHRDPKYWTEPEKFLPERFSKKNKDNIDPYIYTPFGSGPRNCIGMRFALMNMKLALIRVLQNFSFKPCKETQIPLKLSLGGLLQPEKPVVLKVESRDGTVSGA

[2] = young intact rhesus monkeys; cited from earlier work
[3] = d-Amphetamine plasma pharmacokinetics, crossover drug-drug interaction study; format: in vivo, healthy adults
Protocol: as §1

[4] = Lisdexamphetamine plasma pharmacokinetics, crossover drug-drug interaction study; format: in vivo, healthy adults; design: lisdexamphetamine plasma concentration, Mean / lisdexamphetamine plasma concentration, Median / lisdexamphetamine plasma concentration, Min / lisdexamphetamine plasma concentration, Max: unit not given here; details: for AUC / AUC(0-t) / Cmax / Tmax / Vd/F / CL/F: po, 50 mg
Protocol: as §1

[5] = Adverse events and safety, crossover drug-drug interaction study; format: in vivo, healthy adults; details: TEAEs by treatment; single oral dose (SPD503 4 mg, VYVANSE 50 mg)
Protocol: A “treatment-emergent adverse event” (TEAE) is an AE that occurred or worsened during the on-treatment period.
A “non-treatment-emergent adverse event” is an AE that occurred during the pre-treatment period or the post-treatment period.
as §1

CYP450 system = details: cited from earlier work
[6] = single oral dose 50 mg, weight normalized
[7] = time 0.5, single oral dose 50 mg
[8] = time 1.5, single oral dose 50 mg
[9] = time 12, single oral dose 50 mg
[10] = time 24, single oral dose 50 mg
[11] = time 30, single oral dose 50 mg
[12] = time 48, single oral dose 50 mg
[13] = time 72, single oral dose 50 mg

In the case of Cl.N=C(N)NC(=O)Cc1c(Cl)cccc1Cl [guanfacine], the “guanfacine Cmax in combination compared with alone” value [1] is listed as “higher than when administered alone”, the “metabolism by CYP3A4” value (CYP3A4) is listed as “known to be metabolized by CYP3A4” and the delayed response performance [2] is listed as “can be improved”.

For C[C@@H](Cc1ccccc1)NC(=O)[C@@H](N)CCCCN [VYVANSE Alone, lisdexamphetamine dimesylate], the “mean d-amphetamine plasma concentrations, alone compared with co-administration” value ([3]; FIG. 2) was “essentially identical”, the “weight normalized CL/F, alone compared with combination” value ([3]; between the two treatments) was “essentially the same” and the “mean lisdexamphetamine plasma concentrations, alone compared with co-administration” value ([4]; FIG. 3) was “essentially identical”. The AUC ([4]; human, plasma, single oral dose 50 mg, read-out: lisdexamphetamine AUCinfo, Geo Mean) was 32.4 ng·h/mL, the AUC ([4]; human, plasma, single oral dose 50 mg, read-out: lisdexamphetamine AUCinfo, Mean) was 36.1 ng·h/mL and the AUC ([4]; human, plasma, single oral dose 50 mg, read-out: lisdexamphetamine AUCinfo, Median) was 33.2 ng·h/mL. It also gave an AUC(0-t) ([4]; human, plasma, single oral dose 50 mg, read-out: lisdexamphetamine AUClast, Geo Mean) of 28.3 ng·h/mL, an AUC(0-t) ([4]; human, plasma, single oral dose 50 mg, read-out: lisdexamphetamine AUClast, Mean) of 32.1 ng·h/mL and an AUC(0-t) ([4]; human, plasma, single oral dose 50 mg, read-out: lisdexamphetamine AUClast, Median) of 27.2 ng·h/mL. For the same compound, the Cmax ([4]; human, plasma, single oral dose 50 mg, read-out: lisdexamphetamine Cmax, Geo Mean) was 22.5 ng/mL, the Cmax ([4]; human, plasma, single oral dose 50 mg, read-out: lisdexamphetamine Cmax, Mean) was 26.1 ng/mL and the Cmax ([4]; human, plasma, single oral dose 50 mg, read-out: lisdexamphetamine Cmax, Median) was 25.2 ng/mL. It also gave a Tmax ([4]; human, plasma, single oral dose 50 mg, read-out: lisdexamphetamine Tmax, Geo Mean) of 1.1 h, a Tmax ([4]; human, plasma, single oral dose 50 mg, read-out: lisdexamphetamine Tmax, Mean) of 1.1 h and a Tmax ([4]; human, plasma, single oral dose 50 mg, read-out: lisdexamphetamine Tmax, Median) of 1 h. The Vd/F ([4]; human, plasma, single oral dose 50 mg, read-out: lisdexamphetamine VZ/F, Geo Mean) was 1090 L, the Vd/F ([4]; human, plasma, single oral dose 50 mg, read-out: lisdexamphetamine VZ/F, Mean) was 1270 L and the Vd/F ([4]; human, plasma, single oral dose 50 mg, read-out: lisdexamphetamine VZ/F, Median) was 1040 L. For the same compound, the CL/F ([4]; human, plasma, single oral dose 50 mg, weight normalized, read-out: lisdexamphetamine CL/F, Geo Mean (converted)) was 339 mL/min/kg, the CL/F ([4]; human, plasma, single oral dose 50 mg, weight normalized, read-out: lisdexamphetamine CL/F, Mean (converted)) was 362 mL/min/kg and the CL/F ([4]; human, plasma, single oral dose 50 mg, weight normalized, read-out: lisdexamphetamine CL/F, Median (converted)) was 345 mL/min/kg. The Vd/F ([4]; human, plasma, single oral dose 50 mg, weight normalized, read-out: lisdexamphetamine VZ/F, Geo Mean) was 14.4 L/kg, the Vd/F ([4]; human, plasma, single oral dose 50 mg, weight normalized, read-out: lisdexamphetamine VZ/F, Mean) was 16 L/kg and the Vd/F ([4]; human, plasma, single oral dose 50 mg, weight normalized, read-out: lisdexamphetamine VZ/F, Median) was 13.7 L/kg. For the same compound, the half-life ([4]; human, plasma, single oral dose 50 mg, read-out: lisdexamphetamine T1/2, Mean (converted)) was 0.5 h, the “lisdexamphetamine AUCinfo, Max” value ([4]; single oral dose 50 mg) was 95.6 ng·h/mL and the “lisdexamphetamine AUCinfo, Min” value ([4]; single oral dose 50 mg) was 14.2 ng·h/mL. The “lisdexamphetamine AUClast, Max” value ([4]; single oral dose 50 mg) was 94.3 ng·h/mL, the “lisdexamphetamine AUClast, Min” value ([4]; single oral dose 50 mg) was 10.2 ng·h/mL and the “lisdexamphetamine CL/F, Geo Mean” value ([4]; single oral dose 50 mg) was 1543 L/h. The “lisdexamphetamine CL/F, Max” value ([4]; single oral dose 50 mg) was 3523.94 L/h, the “lisdexamphetamine CL/F, Mean” value ([4]; single oral dose 50 mg) was 1701.28 L/h and the “lisdexamphetamine CL/F, Median” value ([4]; single oral dose 50 mg) was 1504.94 L/h. For the same compound, the “lisdexamphetamine CL/F, Min” value ([4]; single oral dose 50 mg) was 522.89 L/h, the “lisdexamphetamine Cmax, Max” value ([4]; single oral dose 50 mg) was 82.37 ng/mL and the “lisdexamphetamine Cmax, Min” value ([4]; single oral dose 50 mg) was 5.87 ng/mL. For the same compound, the “lisdexamphetamine T1/2, Geo Mean” value ([4]; single oral dose 50 mg) was 0.5 h, the “lisdexamphetamine T1/2, Max” value ([4]; single oral dose 50 mg) was 0.8 h and the “lisdexamphetamine T1/2, Min” value ([4]; single oral dose 50 mg) was 0.3 h. For the same compound, the “lisdexamphetamine Tmax, Max” value ([4]; single oral dose 50 mg) was 1.5 h, the “lisdexamphetamine Tmax, Min” value ([4]; single oral dose 50 mg) was 1 h and the “lisdexamphetamine CL/F, Max” value [4, 6] was 660.7 mL/min/kg. For the same compound, the “lisdexamphetamine CL/F, Min” value [4, 6] was 115 mL/min/kg, the “lisdexamphetamine plasma concentration, Max” value ([4]; time 0, single oral dose 50 mg) was 0 and the “lisdexamphetamine plasma concentration, Mean” value ([4]; time 0, single oral dose 50 mg) was 0. The “lisdexamphetamine plasma concentration, Median” value ([4]; time 0, single oral dose 50 mg) was 0, the “lisdexamphetamine plasma concentration, Min” value ([4]; time 0, single oral dose 50 mg) was 0 and the “lisdexamphetamine plasma concentration, Max” value [4, 7] was 54.99. The “lisdexamphetamine plasma concentration, Mean” value [4, 7] was 8.5483, the “lisdexamphetamine plasma concentration, Median” value [4, 7] was 4.51 and the “lisdexamphetamine plasma concentration, Min” value [4, 7] was 0. The “lisdexamphetamine plasma concentration, Max” value ([4]; time 1, single oral dose 50 mg) was 82.37, the “lisdexamphetamine plasma concentration, Mean” value ([4]; time 1, single oral dose 50 mg) was 24.921 and the “lisdexamphetamine plasma concentration, Median” value ([4]; time 1, single oral dose 50 mg) was 23.56. For the same compound, the “lisdexamphetamine plasma concentration, Min” value ([4]; time 1, single oral dose 50 mg) was 4.5, the “lisdexamphetamine plasma concentration, Max” value [4, 8] was 41.42 and the “lisdexamphetamine plasma concentration, Mean” value [4, 8] was 17.7205. For the same compound, the “lisdexamphetamine plasma concentration, Median” value [4, 8] was 15.72, the “lisdexamphetamine plasma concentration, Min” value [4, 8] was 5.87 and the “lisdexamphetamine plasma concentration, Max” value ([4]; time 2, single oral dose 50 mg) was 19.94. For the same compound, the “lisdexamphetamine plasma concentration, Mean” value ([4]; time 2, single oral dose 50 mg) was 9.0166, the “lisdexamphetamine plasma concentration, Median” value ([4]; time 2, single oral dose 50 mg) was 8.17 and the “lisdexamphetamine plasma concentration, Min” value ([4]; time 2, single oral dose 50 mg) was 2.42. For the same compound, the “lisdexamphetamine plasma concentration, Max” value ([4]; time 3, single oral dose 50 mg) was 6.32, the “lisdexamphetamine plasma concentration, Mean” value ([4]; time 3, single oral dose 50 mg) was 1.8902 and the “lisdexamphetamine plasma concentration, Median” value ([4]; time 3, single oral dose 50 mg) was 1.87. The “lisdexamphetamine plasma concentration, Min” value ([4]; time 3, single oral dose 50 mg) was 0, the “lisdexamphetamine plasma concentration, Max” value ([4]; time 4, single oral dose 50 mg) was 2.28 and the “lisdexamphetamine plasma concentration, Mean” value ([4]; time 4, single oral dose 50 mg) was 0.2849. The “lisdexamphetamine plasma concentration, Median” value ([4]; time 4, single oral dose 50 mg) was 0, the “lisdexamphetamine plasma concentration, Min” value ([4]; time 4, single oral dose 50 mg) was 0 and the “lisdexamphetamine plasma concentration, Max” value ([4]; time 6, single oral dose 50 mg) was 0. For the same compound, the “lisdexamphetamine plasma concentration, Mean” value ([4]; time 6, single oral dose 50 mg) was 0, the “lisdexamphetamine plasma concentration, Median” value ([4]; time 6, single oral dose 50 mg) was 0 and the “lisdexamphetamine plasma concentration, Min” value ([4]; time 6, single oral dose 50 mg) was 0. The “lisdexamphetamine plasma concentration, Max” value ([4]; time 8, single oral dose 50 mg) was 0, the “lisdexamphetamine plasma concentration, Mean” value ([4]; time 8, single oral dose 50 mg) was 0 and the “lisdexamphetamine plasma concentration, Median” value ([4]; time 8, single oral dose 50 mg) was 0. The “lisdexamphetamine plasma concentration, Min” value ([4]; time 8, single oral dose 50 mg) was 0, the “lisdexamphetamine plasma concentration, Max” value [4, 9] was 0 and the “lisdexamphetamine plasma concentration, Mean” value [4, 9] was 0. For the same compound, the “lisdexamphetamine plasma concentration, Median” value [4, 9] was 0, the “lisdexamphetamine plasma concentration, Min” value [4, 9] was 0 and the “lisdexamphetamine plasma concentration, Max” value [4, 10] was 0. The “lisdexamphetamine plasma concentration, Mean” value [4, 10] was 0, the “lisdexamphetamine plasma concentration, Median” value [4, 10] was 0 and the “lisdexamphetamine plasma concentration, Min” value [4, 10] was 0. The “lisdexamphetamine plasma concentration, Max” value [4, 11] was 0, the “lisdexamphetamine plasma concentration, Mean” value [4, 11] was 0 and the “lisdexamphetamine plasma concentration, Median” value [4, 11] was 0. The “lisdexamphetamine plasma concentration, Min” value [4, 11] was 0, the “lisdexamphetamine plasma concentration, Max” value [4, 12] was 0 and the “lisdexamphetamine plasma concentration, Mean” value [4, 12] was 0. The “lisdexamphetamine plasma concentration, Median” value [4, 12] was 0, the “lisdexamphetamine plasma concentration, Min” value [4, 12] was 0 and the “lisdexamphetamine plasma concentration, Max” value [4, 13] was 0. The “lisdexamphetamine plasma concentration, Mean” value [4, 13] was 0, the “lisdexamphetamine plasma concentration, Median” value [4, 13] was 0 and the “lisdexamphetamine plasma concentration, Min” value [4, 13] was 0. The “TEAE: Any Event” value [5] was 8 (19.5) n (%), the “TEAE: Arrhythmia supraventricular” value [5] was 1 (2.4) n (%) and the “TEAE: Cardiac disorders” value [5] was 3 (7.3) n (%). For the same compound, the “TEAE: Diarrhoea” value [5] was 0 (0.0) n (%), the “TEAE: Dizziness” value [5] was 3 (7.3) n (%) and the “TEAE: Dizziness postural” value [5] was 1 (2.4) n (%). The “TEAE: Dry mouth” value [5] was 1 (2.4) n (%), the “TEAE: Dysmenorrhoea” value [5] was 1 (2.4) n (%) and the “TEAE: Flushing” value [5] was 0 (0.0) n (%). The “TEAE: Gastrointestinal disorders” value [5] was 2 (4.9) n (%), the “TEAE: General disorders and administration site conditions” value [5] was 0 (0.0) n (%) and the “TEAE: Headache” value [5] was 2 (4.9) n (%). For the same compound, the “TEAE: Nausea” value [5] was 1 (2.4) n (%), the “TEAE: Nervous system disorders” value [5] was 4 (9.8) n (%) and the “TEAE: Nervousness” value [5] was 2 (4.9) n (%). For the same compound, the “TEAE: Non-cardiac chest pain” value [5] was 0 (0.0) n (%), the “TEAE: Orthostatic hypotension” value [5] was 0 (0.0) n (%) and the “TEAE: Palpitations” value [5] was 1 (2.4) n (%). The “TEAE: Paraesthesia” value [5] was 0 (0.0) n (%), the “TEAE: Psychiatric disorders” value [5] was 2 (4.9) n (%) and the “TEAE: Psychomotor hyperactivity” value [5] was 1 (2.4) n (%). For the same compound, the “TEAE: Reproductive system and breast disorders” value [5] was 1 (2.4) n (%), the “TEAE: Supraventricular extrasystoles” value [5] was 0 (0.0) n (%) and the “TEAE: Tachycardia” value [5] was 1 (2.4) n (%). For the same compound, the “TEAE: Vascular disorders” value [5] was 0 (0.0) n (%), the “TEAE: Wandering pacemaker” value [5] was 1 (2.4) n (%) and the “induction or inhibition of the CYP450 system” value (CYP450 system) was “neither an inducer nor inhibitor”. For the same compound, the “metabolism by the CYP450 system” value (CYP450 system) was “not metabolized by the CYP450 system”.
